Read-outs that look alike come from different tables or passages of the source.
Legend:
paddy rice [1] = assay: whole plant or invertebrate; format: in vivo, paddy rice (Asahi species); conditions: Oryza sativa, 720 h; for inhibition at 9000 g/ha: 900 g/10 are
Protocol: (§1) In a Wagner pot of 1/500 are, paddy field soil (alluvial soil) was placed and 50 seeds of Echinochloa crus-galli var. oryzicola and 30 seeds of paddy rice were seeded in the surface layer of said soil and the submerging depth was kept at about 1 cm. When Echinochloa crus-galli var. oryzicola reached at the one leaf stage and 5-leaf stage, the emulsion of a predetermined concentration, prepared according to Example 4 was added dropwise. After 30 days from the treatment with the chemical, dry weights of Echinochloa crus-galli var. oryzicola and paddy rice were measured and the inhibition rate was calculated with reference to untreated area. [formula]
(§2) In a concrete pot of 1/400 are (50 cm×50 cm), paddy field soil (alluvial soil) was placed and 200 seeds of Echinochloa crus-galli var. oryzicola were seeded in 10 surface layer of said soil and the soil was submerged at about 3 cm depth. Before emergence of Echinochloa crus-galli var. oryzicola, paddy rice at 2.5-leaf stage (Asahi species) was transplanted at the rate of 8 stubs per pot, planting 3 seedlings per stub. At the one-leaf stage (3.5 leaves stage of paddy rice) and 5 leaves stage (7 leaves stage of paddy rice) of Echinochloa crus-galli var. oryzicola, the granule prepared according to Example 1 was applied. […] 30 Days after the treatment with the chemical, examination was made in the similar manner as Test Example 1 to obtain results as shown in Table 2.
(§3) In the table, as the comparative chemicals CPN, Benthiocarb, Molinate and Simetryne, those commercially available were used and the comparative chemicals A and B (as mentioned before) used were prepared according to the process for preparing the compound of this invention.

[2] = system: Echinochloa crus-galli var. oryzicola; assay: Test Example 2: concrete pot test on killing effect, Echinochloa crus-galli var. oryzicola; format: in vivo; conditions: Echinochloa crus-galli, 720 h; for inhibition at 9000 g/ha: 900 g/10 are
Protocol: as §1, §2, §3

paddy rice [3] = assay: Test Example 1: pot test on selectivity, inhibition of paddy rice; format: in vivo; conditions: dry weight 30 days after treatment
Protocol: as §1, with “When Echinochloa crus-galli var. oryzicola reached at the one leaf stage and 5-leaf stage, the emulsion of a predetermined concentration, prepared according to Example 4 was added dropwise.” left out
(§4) The comparative chemicals used, i.e. DCMU and Linuron, were those commercially available, and the comparative chemicals A and B used were prepared according to the process for formulating the compound of this invention.

[4] = system: Echinochloa crus-galli var. oryzicola; assay: Test Example 1: pot test on selectivity, inhibition of Echinochloa crus-galli var. oryzicola; format: in vivo; conditions: dry weight 30 days after treatment; for inhibition at 750 g/ha / inhibition at 1500 g/ha / inhibition at 3000 g/ha / inhibition at 6000 g/ha / inhibition at 9000 g/ha: Echinochloa crus-galli, 720 h
Protocol: as §1, §4

[5] = read-out: Inhibition (%) by treatment at 1-leaf stage of E. crus-galli var. oryzicola, paddy rice
[6] = read-out: Inhibition (%) by treatment at 5-leaf stage of E. crus-galli var. oryzicola, paddy rice
[7] = read-out: Inhibition (%) by treatment at 1-leaf stage of E. crus-galli var. oryzicola, E. crus-galli var. oryzicola
[8] = read-out: Inhibition (%) by treatment at 5-leaf stage of E. crus-galli var. oryzicola, E. crus-galli var. oryzicola

In the case of `O=[N+]([O-])c1ccc(Oc2c(Cl)cc(Cl)cc2Cl)cc1` [CNP, 2,4,6-trichlorophenyl-4'-nitrophenylether], the inhibition at 1000 g/ha (paddy rice [1]; 100 g/10 are, granule, rice at 3.5 leaves stage, 30 days, read-out: Inhibition (%) by treatment at 1-leaf stage of E. crus-galli var. oryzicola, paddy rice) is reported as 0%, the inhibition at 1000 g/ha (paddy rice [1]; 100 g/10 are, granule, rice at 7 leaves stage, 30 days, read-out: Inhibition (%) by treatment at 5-leaf stage of E. crus-galli var. oryzicola, paddy rice) is reported as 0% and the inhibition at 3000 g/ha (paddy rice [1]; 300 g/10 are, granule, rice at 3.5 leaves stage, 30 days, read-out: Inhibition (%) by treatment at 1-leaf stage of E. crus-galli var. oryzicola, paddy rice) is reported as 8%. The inhibition at 3000 g/ha (paddy rice [1]; 300 g/10 are, granule, rice at 7 leaves stage, 30 days, read-out: Inhibition (%) by treatment at 5-leaf stage of E. crus-galli var. oryzicola, paddy rice) was 0%, the inhibition at 9000 g/ha (paddy rice [1]; granule, rice at 3.5 leaves stage, 30 days, read-out: Inhibition (%) by treatment at 1-leaf stage of E. crus-galli var. oryzicola, paddy rice) was 52% and the inhibition at 9000 g/ha (paddy rice [1]; granule, rice at 7 leaves stage, 30 days, read-out: Inhibition (%) by treatment at 5-leaf stage of E. crus-galli var. oryzicola, paddy rice) was 0%. For the same molecule, the inhibition at 1000 g/ha ([2]; 100 g/10 are, granule, 30 days after treatment, read-out: Inhibition (%) by treatment at 1-leaf stage of E. crus-galli var. oryzicola, E. crus-galli var. oryzicola) was 65%, the inhibition at 1000 g/ha ([2]; 100 g/10 are, granule, 30 days after treatment, read-out: Inhibition (%) by treatment at 5-leaf stage of E. crus-galli var. oryzicola, E. crus-galli var. oryzicola) was 0% and the inhibition at 3000 g/ha ([2]; 300 g/10 are, granule, 30 days after treatment, read-out: Inhibition (%) by treatment at 1-leaf stage of E. crus-galli var. oryzicola, E. crus-galli var. oryzicola) was 100%. The inhibition at 3000 g/ha ([2]; 300 g/10 are, granule, 30 days after treatment, read-out: Inhibition (%) by treatment at 5-leaf stage of E. crus-galli var. oryzicola, E. crus-galli var. oryzicola) was 0%, the inhibition at 9000 g/ha ([2]; granule, 30 days after treatment, read-out: Inhibition (%) by treatment at 1-leaf stage of E. crus-galli var. oryzicola, E. crus-galli var. oryzicola) was 100% and the inhibition at 9000 g/ha ([2]; granule, 30 days after treatment, read-out: Inhibition (%) by treatment at 5-leaf stage of E. crus-galli var. oryzicola, E. crus-galli var. oryzicola) was 0%.

With `CC=CCOc1ccc(NC(=O)N(C)C)cc1` [Mixture of trans- and cis-forms 1:4] the “Inhibition (%) by treatment at 1-leaf stage, paddy rice” value (paddy rice [3]; 75 g/10 are, 1-leaf stage) was 0%, the “Inhibition (%) by treatment at 5-leaf stage, paddy rice” value (paddy rice [3]; 75 g/10 are, 5-leaf stage) was 0% and the “Inhibition (%) by treatment at 1-leaf stage, paddy rice” value (paddy rice [3]; 150 g/10 are, 1-leaf stage) was 0%. The “Inhibition (%) by treatment at 5-leaf stage, paddy rice” value (paddy rice [3]; 150 g/10 are, 5-leaf stage) was 0%, the “Inhibition (%) by treatment at 1-leaf stage, paddy rice” value (paddy rice [3]; 300 g/10 are, 1-leaf stage) was 0% and the “Inhibition (%) by treatment at 5-leaf stage, paddy rice” value (paddy rice [3]; 300 g/10 are, 5-leaf stage) was 0%. For the same molecule, the “Inhibition (%) by treatment at 1-leaf stage, paddy rice” value (paddy rice [3]; 600 g/10 are, 1-leaf stage) was 0%, the “Inhibition (%) by treatment at 5-leaf stage, paddy rice” value (paddy rice [3]; 600 g/10 are, 5-leaf stage) was 0% and the “Inhibition (%) by treatment at 1-leaf stage, paddy rice” value (paddy rice [3]; 900 g/10 are, 1-leaf stage) was 4%. The “Inhibition (%) by treatment at 5-leaf stage, paddy rice” value (paddy rice [3]; 900 g/10 are, 5-leaf stage) was 0%, the “Inhibition (%) by treatment at 1-leaf stage, E. crus-galli var. oryzicola” value ([4]; 75 g/10 are, 1-leaf stage) was 93% and the “Inhibition (%) by treatment at 5-leaf stage, E. crus-galli var. oryzicola” value ([4]; 75 g/10 are, 5-leaf stage) was 84%. The “Inhibition (%) by treatment at 1-leaf stage, E. crus-galli var. oryzicola” value ([4]; 150 g/10 are, 1-leaf stage) was 100%, the “Inhibition (%) by treatment at 5-leaf stage, E. crus-galli var. oryzicola” value ([4]; 150 g/10 are, 5-leaf stage) was 100% and the “Inhibition (%) by treatment at 1-leaf stage, E. crus-galli var. oryzicola” value ([4]; 300 g/10 are, 1-leaf stage) was 100%. The “Inhibition (%) by treatment at 5-leaf stage, E. crus-galli var. oryzicola” value ([4]; 300 g/10 are, 5-leaf stage) was 100%, the “Inhibition (%) by treatment at 1-leaf stage, E. crus-galli var. oryzicola” value ([4]; 600 g/10 are, 1-leaf stage) was 100% and the “Inhibition (%) by treatment at 5-leaf stage, E. crus-galli var. oryzicola” value ([4]; 600 g/10 are, 5-leaf stage) was 100%. The “Inhibition (%) by treatment at 1-leaf stage, E. crus-galli var. oryzicola” value ([4]; 900 g/10 are, 1-leaf stage) was 100% and the “Inhibition (%) by treatment at 5-leaf stage, E. crus-galli var. oryzicola” value ([4]; 900 g/10 are, 5-leaf stage) was 100%.

For `CC=CCOc1ccc(NC(=O)N(C)C)cc1` [Mixture of trans- and cis-forms 4:1], the “Inhibition (%) by treatment at 1-leaf stage, paddy rice” value (paddy rice [3]; 900 g/10 are, 1-leaf stage) was 1%, the inhibition at 750 g/ha (paddy rice [3]; Oryza sativa, 720 h, 75 g/10 are, 1-leaf stage, read-out: Inhibition (%) by treatment at 1-leaf stage, paddy rice) was 0% and the inhibition at 750 g/ha (paddy rice [3]; Oryza sativa, 720 h, 75 g/10 are, 5-leaf stage, read-out: Inhibition (%) by treatment at 5-leaf stage, paddy rice) was 0%. For the same molecule, the inhibition at 1500 g/ha (paddy rice [3]; Oryza sativa, 720 h, 150 g/10 are, 1-leaf stage, read-out: Inhibition (%) by treatment at 1-leaf stage, paddy rice) was 0%, the inhibition at 1500 g/ha (paddy rice [3]; Oryza sativa, 720 h, 150 g/10 are, 5-leaf stage, read-out: Inhibition (%) by treatment at 5-leaf stage, paddy rice) was 0% and the inhibition at 3000 g/ha (paddy rice [3]; Oryza sativa, 720 h, 300 g/10 are, 1-leaf stage, read-out: Inhibition (%) by treatment at 1-leaf stage, paddy rice) was 0%. For the same molecule, the inhibition at 3000 g/ha (paddy rice [3]; Oryza sativa, 720 h, 300 g/10 are, 5-leaf stage, read-out: Inhibition (%) by treatment at 5-leaf stage, paddy rice) was 0%, the inhibition at 6000 g/ha (paddy rice [3]; Oryza sativa, 720 h, 600 g/10 are, 1-leaf stage, read-out: Inhibition (%) by treatment at 1-leaf stage, paddy rice) was 0% and the inhibition at 6000 g/ha (paddy rice [3]; Oryza sativa, 720 h, 600 g/10 are, 5-leaf stage, read-out: Inhibition (%) by treatment at 5-leaf stage, paddy rice) was 0%. The inhibition at 9000 g/ha (paddy rice [3]; Oryza sativa, 720 h, 900 g/10 are, 5-leaf stage, read-out: Inhibition (%) by treatment at 5-leaf stage, paddy rice) was 0%, the inhibition at 750 g/ha ([4]; 75 g/10 are, 1-leaf stage, read-out: Inhibition (%) by treatment at 1-leaf stage, E. crus-galli var. oryzicola) was 94% and the inhibition at 750 g/ha ([4]; 75 g/10 are, 5-leaf stage, read-out: Inhibition (%) by treatment at 5-leaf stage, E. crus-galli var. oryzicola) was 80%. It also gave an inhibition at 1500 g/ha ([4]; 150 g/10 are, 1-leaf stage, read-out: Inhibition (%) by treatment at 1-leaf stage, E. crus-galli var. oryzicola) of 100%, an inhibition at 1500 g/ha ([4]; 150 g/10 are, 5-leaf stage, read-out: Inhibition (%) by treatment at 5-leaf stage, E. crus-galli var. oryzicola) of 100% and an inhibition at 3000 g/ha ([4]; 300 g/10 are, 1-leaf stage, read-out: Inhibition (%) by treatment at 1-leaf stage, E. crus-galli var. oryzicola) of 100%. The inhibition at 3000 g/ha ([4]; 300 g/10 are, 5-leaf stage, read-out: Inhibition (%) by treatment at 5-leaf stage, E. crus-galli var. oryzicola) was 100%, the inhibition at 6000 g/ha ([4]; 600 g/10 are, 1-leaf stage, read-out: Inhibition (%) by treatment at 1-leaf stage, E. crus-galli var. oryzicola) was 100% and the inhibition at 6000 g/ha ([4]; 600 g/10 are, 5-leaf stage, read-out: Inhibition (%) by treatment at 5-leaf stage, E. crus-galli var. oryzicola) was 100%. For the same molecule, the inhibition at 9000 g/ha ([4]; 900 g/10 are, 1-leaf stage, read-out: Inhibition (%) by treatment at 1-leaf stage, E. crus-galli var. oryzicola) was 100% and the inhibition at 9000 g/ha ([4]; 900 g/10 are, 5-leaf stage, read-out: Inhibition (%) by treatment at 5-leaf stage, E. crus-galli var. oryzicola) was 100%.

For `CCNc1nc(NCC)nc(SC)n1` [Simetryne, 2,4-bis(ethylamino)-6-methylthio-1,3,5-triazine], the inhibition at 300 g/ha (paddy rice [1]; [5]) was 0%, the inhibition at 1000 g/ha (paddy rice [1]; [5]) was 74% and the inhibition at 3000 g/ha (paddy rice [1]; [5]) was 100%. The inhibition at 300 g/ha (paddy rice [1]; [6]) was 0%, the inhibition at 1000 g/ha (paddy rice [1]; [6]) was 17% and the inhibition at 3000 g/ha (paddy rice [1]; [6]) was 46%. It also gave an inhibition at 300 g/ha [2, 7] of 20%, an inhibition at 1000 g/ha [2, 7] of 100% and an inhibition at 3000 g/ha [2, 7] of 100%. For the same molecule, the inhibition at 300 g/ha [2, 8] was 0%, the inhibition at 1000 g/ha [2, 8] was 7% and the inhibition at 3000 g/ha [2, 8] was 36%.

Source: US4255183A, “Substituted phenyl urea and herbicides for use in paddy field” (Hokko Chemical Industry Co., Ltd., priority 1977, dated 1981)
